How the values were obtained:
[1] = tested on: bamyardgrass (Echinochloa crus-galli L); assay: Test Example 8: foliar application of compound No. 2-6 wettable powder with surfactant, barnyardgrass; type: in vivo; details: 15 g a.i./ha wettable powder, 21st day
Description: (§1) On the 21st day after the application, the state of growth of the plants was visually observed (growth inhibition rate (%)=0 (the same as the untreated plot) to 100 (complete kill)), and the results as shown in Tables b1 and b2 were obtained.
(§2) Upland field soil was put into a 1/1,000,000 ha pot, and seeds of bamyardgrass (Echinochloa crus-galli L) and crabgrass were respectively sown and grown in a greenhouse. When barnyardgrass reached 4.0 to 4.5 leaf stage and crabgrass reached 4.0 to 5.0 leaf stage, a prescribed amount (15 g a.i./ha) of a wettable powder comprising compound No. 2-6 as an active ingredient, prepared in accordance with the above Example 1, was diluted with water corresponding to 300 L/ha (containing 0.05 vol % of a surfactant containing the POA alkyl ether phosphate), followed by foliar application. Further, for comparison, foliar application was carried out in the same manner by using SILWETT L-77 (tradename.) at a concentration of 0.1 vol % instead of the above surfactant.
(§3) On the 21st day after the application, the state of growth of the plants was evaluated in the same manner as in Test Example 1, and the results as shown in Tables b11 and b12 were obtained.

crabgrass [2] = assay: Test Example 8: foliar application of compound No. 2-6 wettable powder with surfactant, crabgrass; type: in vivo, Digitaria sanguinalis L.; details: 15 g a.i./ha wettable powder, 21st day
Description: as §1, §2, §3

crabgrass [3] = assay: Test Example 7: foliar application of compound No. 2-1 wettable powder with surfactant, crabgrass; type: in vivo, Digitaria sanguinalis L.; details: 15 g a.i./ha wettable powder, 21st day
Description: as §1
as §2, with “of” for “of bamyardgrass (Echinochloa crus-galli L) and”, “were” for “were respectively”, “When” for “When barnyardgrass reached 4.0 to 4.5 leaf stage and”, “2-1” for “2-6”, “using a silicon surfactant (tradename:” for “using”, “L-77)” for “L-77 (tradename.)”
On the 21st day after the application, the state of growth of the plant was evaluated in the same manner as in Test Example 1, and the results as shown in Table b10 were obtained.

barnyardgrass = assay: Test Example 13: foliar application of compound No. 5-1 wettable powder with surfactant, barnyardgrass; type: in vivo, Echinochloa crus-galli L; details: 31 g a.i./ha wettable powder, 21st day
Description: as §1
as §2, with “bamyardgrass” for “bamyardgrass (Echinochloa crus-galli L) and crabgrass”, “were” for “were respectively”, “leaf” for “leaf stage and crabgrass reached 4.0 to 5.0 leaf”, “(31” for “(15”, “5-1” for “2-6”, “(tradename)” for “(tradename.)”
On the 21st day after the application, the state of growth of the plant was evaluated in the same manner as in Test Example 1, and the results as shown in Table b18 were obtained.

crabgrass [4] = assay: Test Example 5: foliar application of compound No. 3-31 wettable powder with surfactant, crabgrass; type: in vivo, Digitaria sanguinalis L.; details: foliar application at 4.5 to 5.0 leaf stage, visual, 21st day, 0 = same as untreated, 100 = complete kill
Description: as §1
Upland field soil was put into a 1/1,000,000 ha pot, and seeds of crabgrass were sown and grown in a greenhouse. When crabgrass reached 4.5 to 5.0 leaf stage, a prescribed amount (30 g a.i./ha) of a water-based suspension concentrate comprising compound No. 238 as an active ingredient, prepared in accordance with the above Example 6, was diluted with water corresponding to 300 L/ha (containing 0.05 vol % of a surfactant containing the POA alkyl ether phosphate), followed by foliar application. Further, for comparison, foliar application was carried out in the same manner by using CITOWETT (tradename) at a concentration of 0.3 vol %, instead of the above surfactant.
On the 21st day after the application, the state of growth of the plant was evaluated in the same manner as in Test Example 1, and the results as shown in Table b5 were obtained.
The results as shown in Table b8 were obtained in the same manner as in the above Test Example 3 except that a prescribed amount (60 g a.i./ha) of a wettable powder comprising compound No. 3-31 as an active ingredient, prepared in accordance with the above Example 5, was used.

[5] = tested on: bamyardgrass (Echinochloa crus-galli L); assay: Test Example 10: foliar application of compound No. 2-185 wettable powder with surfactant, barnyardgrass; type: in vivo; details: 15 g a.i./ha wettable powder, 21st day
Description: as §1, §2
On the 21st day after the application, the state of growth of the plants was evaluated in the same manner as in Test Example 1, and the results as shown in Tables b11 and b12 were obtained. […]

crabgrass [6] = assay: Test Example 10: foliar application of compound No. 2-185 wettable powder with surfactant, crabgrass; type: in vivo, Digitaria sanguinalis L.; details: 15 g a.i./ha wettable powder, 21st day
Description: as §1, §2, §3
The results as shown in Tables b14 and b15 were obtained in the same manner as in the above Test Example 8 except that a prescribed amount (15 g a.i./ha) of a wettable powder comprising compound No. 2-185 as an active ingredient, prepared in accordance with the above Example 1, was used.

crabgrass [7] = assay: Test Example 12: foliar application of compound No. 4-320 wettable powder with surfactant, crabgrass; type: in vivo, Digitaria sanguinalis L.; details: 15 g a.i./ha wettable powder, 21st day
Description: as §1
as §2, with “of” for “of bamyardgrass (Echinochloa crus-galli L) and”, “were” for “were respectively”, “When” for “When barnyardgrass reached 4.0 to 4.5 leaf stage and”, “4-3” for “2-6”, “(tradename)” for “(tradename.)”
On the 21st day after the application, the state of growth of the plant was evaluated in the same manner as in Test Example 1, and the results as shown in Table b16 were obtained.
The results as shown in Tables b17 were obtained in the same manner as in the above Test Example 11 except that a prescribed amount (15 g a.i./ha) of a wettable powder comprising compound No. 4-320 as an active ingredient, prepared in accordance with the above Example 1, was used.

[8] = surfactant PHOSPHOLAN PS-236 0.05 vol %, present invention
[9] = surfactant SILWETT L-77 0.1 vol %, comparison
[10] = surfactant ADECA COL PS-440E 0.05 vol %, present invention
[11] = surfactant NIKKOL DDP-8 0.05 vol %, present invention
[12] = surfactant NIKKOL TDP-8 0.05 vol %, present invention
[13] = surfactant PHOSPHANOL ML-240 0.05 vol %, present invention
[14] = surfactant PHOSPHANOL RS-710 0.05 vol %, present invention
[15] = surfactant PLYSURF A219B 0.05 vol %, present invention

Compound: CCn1ncc(C(=O)c2ccc(S(C)(=O)=O)c(OCCOC)c2C)c1O [2-6]
- Growth inhibition rate (%) of barnyardgrass [1, 8]: 95%
- Growth inhibition rate (%) of barnyardgrass [1, 9]: 10%
- Growth inhibition rate (%) of crabgrass (crabgrass [2]; [10]): 75%
- Growth inhibition rate (%) of crabgrass (crabgrass [2]; [11]): 70%
- Growth inhibition rate (%) of crabgrass (crabgrass [2]; [12]): 73%
- Growth inhibition rate (%) of crabgrass (crabgrass [2]; [13]): 85%
- Growth inhibition rate (%) of crabgrass (crabgrass [2]; [14]): 70%
- Growth inhibition rate (%) of crabgrass (crabgrass [2]; [15]): 78%
- Growth inhibition rate (%) of crabgrass (crabgrass [2]; [9]): 40%

Compound: COC(=O)c1c(S(C)(=O)=O)ccc(C(=O)c2cnn(C)c2O)c1C [2-1]
- Growth inhibition rate (%) of crabgrass (crabgrass [3]; [14]): 75%
- Growth inhibition rate (%) of crabgrass (crabgrass [3]; [15]): 70%
- Growth inhibition rate (%) of crabgrass (crabgrass [3]; [9]): 10%

Compound: COCCOCc1nc(C(F)(F)F)ccc1C(=O)C1C(=O)C2CCC(C2)C1=O (stereo not drawn) [5-1]
- Growth inhibition rate (%) of barnyardgrass (barnyardgrass; [10]): 85%
- Growth inhibition rate (%) of barnyardgrass (barnyardgrass; [9]): 70%

Compound: CS(=O)(=O)c1ccc(C(=O)C2C(=O)CCCC2=O)c(Cl)c1COCC(F)(F)F [Compound No. 3-31]
- Growth inhibition rate (%) of crabgrass (crabgrass [4]; comparison: 60 g a.i./ha wettable powder in 300 L/ha water with surfactant CITOWETT 0.3 vol %): 20%
- Growth inhibition rate (%) of crabgrass (crabgrass [4]; the present invention: 60 g a.i./ha wettable powder in 300 L/ha water with surfactant NIKKOL DDP-8 0.05 vol %): 80%

Compound: COCc1c(S(C)(=O)=O)ccc(C(=O)c2cnn(C)c2O)c1C [2-185]
- Growth inhibition rate (%) of barnyardgrass [5, 8]: 80%
- Growth inhibition rate (%) of barnyardgrass [5, 9]: 0%
- Growth inhibition rate (%) of crabgrass (crabgrass [6]; [11]): 70%
- Growth inhibition rate (%) of crabgrass (crabgrass [6]; [12]): 70%
- Growth inhibition rate (%) of crabgrass (crabgrass [6]; [13]): 70%
- Growth inhibition rate (%) of crabgrass (crabgrass [6]; [14]): 73%
- Growth inhibition rate (%) of crabgrass (crabgrass [6]; [15]): 70%
- Growth inhibition rate (%) of crabgrass (crabgrass [6]; [9]): 20%

Compound: CCn1ncc(C(=O)c2ccc(S(C)(=O)=O)c(OCCOC)c2C)c1OC(C)OC(=O)OC (stereo not drawn) [Compound No. 4-320, 1-(1-ethyl-4-(3-(2-methoxyethoxy)-2-methyl-4-(methylsulfonyl)benzoyl)-1H-pyrazol-5-yloxy)ethyl methyl carbonate]
- Growth inhibition rate (%) of crabgrass (crabgrass [7]; [11]): 90%
- Growth inhibition rate (%) of crabgrass (crabgrass [7]; [8]): 90%
- Growth inhibition rate (%) of crabgrass (crabgrass [7]; [9]): 88%
